Key:
[1] = target: T1, KRASG12D (Homo sapiens, UniProt P01116, G12D); test: Bio-Biochem-PPI-HTRF Ras-SOS1 interaction assay (KRAS G12D); format: biochemical; settings: 5 nM
T1 construct: made in house; host or cells: E. coli BL21 (DE3)
Protocol: (§1) The assay buffer can contain −5 mM HEPES pH 7.4, ˜150 mM NaCl, ˜ 1 mM DTT, 0.05% BSA and 0.0025% (v/v) Igepal. A Ras working solution is prepared in an assay buffer containing typically a suitable amount of the protein construct (e.g., GST-tagged K-Ras mutant) and the FRET donor (e.g., antiGST-Eu(K) from Cisbio, France). A SOS1 working solution is prepared in an assay buffer containing suitable amount of the protein construct (e.g., His-hSOS1) and the FRET acceptor (e.g., anti-6His-XL665 from Cisbio, France). A suitable amount of the protein construct will depend on the range of activity or range of IC50 values being detected or under investigation. For detecting IC50 within a range of 500 nM, the protein constructs of the same range of molarity can be utilized. […] A fixed volume of DMSO with or without test compound is transferred into a 384-well plate. Ras working solution is added to all wells of the test plate. SOS1 working solution is added to all wells except for those that are subsequently filled the inhibitor control solution. Upon incubation for about 10 minutes or longer, the fluorescence is measured with a M1000Pro plate reader (Tecan) using HTRF detection (excitation 337 nm, emission 1:620 nm, emission 2: 665 nm). Compounds are tested in duplicates at different concentrations (for example, 10 μM, 2.5 μM, 0.63 μM, 0.16 μM, 0.04 μM, 0.01 μM test compound). The ratiometric data (i.e., emission 2 divided by emission 1) is used to calculate IC50 values against Ras using GraphPad Prism (GraphPad software). Following this general procedure, samples were tested with or without a subject compound disclosed herein including compounds exemplified in Table 1 to assess their abilities to inhibit a mutant K-Ras relative to another mutant K-Ras or wildtype K-Ras. Signaling output measured in terms of IC50 values can be obtained, a ratio of IC50 against one mutant relative to another mutant can be calculated. For instance, a selective reduction of K-Ras G12D signaling output can be evidenced by a ratio greater than one. In particular, a selective reduction of K-Ras G12D signaling relative to K-Ras WT signaling is evidenced as the ratio of IC50 (against K-Ras WT) to IC50 (against K-Ras G12D) is greater than 1.

[2] = target: T2, KRASwt (Homo sapiens, UniProt P01116); test: Bio-Biochem-PPI-HTRF Ras-SOS1 interaction assay (KRAS wt); format: biochemical; settings: 5 nM
T2 construct: made in house; host or cells: E. coli BL21 (DE3)
Protocol: as §1

T2 sequence (P01116 1-188 isoform P01116-2): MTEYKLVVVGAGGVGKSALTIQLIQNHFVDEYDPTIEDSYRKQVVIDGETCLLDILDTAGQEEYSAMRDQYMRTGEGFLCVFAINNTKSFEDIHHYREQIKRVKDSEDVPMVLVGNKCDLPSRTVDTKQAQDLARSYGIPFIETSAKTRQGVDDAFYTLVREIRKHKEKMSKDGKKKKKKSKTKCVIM
T1 sequence (P01116 1-188 isoform P01116-2 G12D): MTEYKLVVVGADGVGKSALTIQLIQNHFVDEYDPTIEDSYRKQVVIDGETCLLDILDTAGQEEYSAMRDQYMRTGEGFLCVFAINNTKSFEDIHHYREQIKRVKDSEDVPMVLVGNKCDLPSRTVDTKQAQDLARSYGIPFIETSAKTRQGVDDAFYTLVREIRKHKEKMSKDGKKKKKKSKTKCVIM

| SMILES | IC50 [1] [µM] | IC50 [2] [µM] |
| --- | --- | --- |
| N#Cc1c(N)sc2c(F)ccc(-c3c(Cl)cc4c(N5CCCCC6(CN(C(=O)CCC(F)F)C6)C5)nc(OC[C@@]56CCCN5C[C@H](F)C6)nc4c3F)c12 [compound 337, 2-amino-4-(6-chloro-4-(2-(4,4-difluorobutanoyl)-2,6-diazaspiro[3.6]decan-6-yl)-8-fluoro-2-(((2R,7aS)-2-fluorotetrahydro-1H-pyrrolizin-7a(5H)-yl)methoxy)quinazolin-7-yl)-7-fluorobenzo[b]thiophene-3-carbonitrile] | < 5 | < 5 |
| N#Cc1c(N)sc2c(F)ccc(-c3c(Cl)cc4c(N5CCCCC6(CN(C(=O)CC7COC7)C6)C5)nc(OC[C@@]56CCCN5C[C@H](F)C6)nc4c3F)c12 [compound 273, 2-amino-4-(6-chloro-8-fluoro-2-(((2R,7aS)-2-fluorotetrahydro-1H-pyrrolizin-7a(5H)-yl)methoxy)-4-(2-(2-(oxetan-3-yl)acetyl)-2,6-diazaspiro[3.6]decan-6-yl)quinazolin-7-yl)-7-fluorobenzo[b]thiophene-3-carbonitrile] | < 5 | < 5 |
| N#Cc1c(N)sc2c(F)ccc(-c3c(Cl)cc4c(N5CCC6(CC5)CN(C(=O)C5CC5(F)F)CCO6)nc(OC[C@@]56CCCN5C[C@H](F)C6)nc4c3F)c12 (stereo partly drawn) [compound 171, 2-amino-4-(6-chloro-4-(4-(2,2-difluorocyclopropane-1-carbonyl)-1-oxa-4,9-diazaspiro[5.5]undecan-9-yl)-8-fluoro-2-(((2R,7aS)-2-fluorotetrahydro-1H-pyrrolizin-7a(5H)-yl)methoxy)quinazolin-7-yl)-7-fluorobenzo[b]thiophene-3-carbonitrile] | < 5 | < 5 |
| N#Cc1c(N)sc2c(F)ccc(-c3c(Cl)cc4c(N5CCCCC6(CN(C(=O)C(F)(F)F)C6)C5)nc(OC[C@@]56CCCN5C[C@H](F)C6)nc4c3F)c12 [compound 206, 2-amino-4-(6-chloro-8-fluoro-2-(((2R,7aS)-2-fluorotetrahydro-1H-pyrrolizin-7a(5H)-yl)methoxy)-4-(2-(2,2,2-trifluoroacetyl)-2,6-diazaspiro[3.6]decan-6-yl)quinazolin-7-yl)-7-fluorobenzo[b]thiophene-3-carbonitrile] | < 5 | < 5 |
| Nc1nc2c(-c3c(Cl)cc4c(N5CCOC6(CCNC6)C5)nc(OCC56CCCN5C[C@H](F)C6)nc4c3F)ccc(F)c2s1 (stereo partly drawn) [compound 150, 4-(6-chloro-8-fluoro-2-(((2R)-2-fluorotetrahydro-1H-pyrrolizin-7a(5H)-yl)methoxy)-4-(6-oxa-2,9-diazaspiro[4.5]decan-9-yl)quinazolin-7-yl)-7-fluorobenzo[d]thiazol-2-amine] | < 5 | < 5 |
| N#Cc1c(N)sc2c(F)ccc(-c3c(Cl)cc4c(N5CCCCC6(CN(C(=O)C7CC7C(F)(F)F)C6)C5)nc(OC[C@@]56CCCN5C[C@H](F)C6)nc4c3F)c12 (stereo partly drawn) [compound 311, 2-amino-4-(6-chloro-8-fluoro-2-(((2R,7aS)-2-fluorotetrahydro-1H-pyrrolizin-7a(5H)-yl)methoxy)-4-(2-(2-(trifluoromethyl)cyclopropane-1-carbonyl)-2,6-diazaspiro[3.6]decan-6-yl)quinazolin-7-yl)-7-fluorobenzo[b]thiophene-3-carbonitrile] | < 5 | < 5 |
| N#Cc1c(N)sc2c(F)ccc(-c3c(Cl)cc4c(N5CCCCC6(CN(C(=O)C7CC(C#N)C7)C6)C5)nc(OC[C@@]56CCCN5C[C@H](F)C6)nc4c3F)c12 (stereo partly drawn) [compound 294, 2-amino-4-(6-chloro-4-(2-(3-cyanocyclobutane-1-carbonyl)-2,6-diazaspiro[3.6]decan-6-yl)-8-fluoro-2-(((2R,7aS)-2-fluorotetrahydro-1H-pyrrolizin-7a(5H)-yl)methoxy)quinazolin-7-yl)-7-fluorobenzo[b]thiophene-3-carbonitrile] | < 5 | < 5 |
| N#Cc1c(N)sc2c(F)ccc(-c3c(Cl)cc4c(N5CCCCC6(CN(C(=O)N7CCC7)C6)C5)nc(OC[C@@]56CCCN5C[C@H](F)C6)nc4c3F)c12 [compound 272, 2-amino-4-(4-(2-(azetidine-1-carbonyl)-2,6-diazaspiro[3.6]decan-6-yl)-6-chloro-8-fluoro-2-(((2R,7aS)-2-fluorotetrahydro-1H-pyrrolizin-7a(5H)-yl)methoxy)quinazolin-7-yl)-7-fluorobenzo[b]thiophene-3-carbonitrile] | < 5 | < 5 |
| N#Cc1c(N)sc2c(F)ccc(-c3c(Cl)cc4c(N5CCC(C(F)F)CC6(CN(C(=O)[C@@H]7CC7(F)F)C6)C5)nc(OC[C@@]56CCCN5C[C@H](F)C6)nc4c3F)c12 (stereo partly drawn) [compound 254, 2-amino-4-(6-chloro-4-(2-((S)-2,2-difluorocyclopropane-1-carbonyl)-9-(difluoromethyl)-2,6-diazaspiro[3.6]decan-6-yl)-8-fluoro-2-(((2R,7aS)-2-fluorotetrahydro-1H-pyrrolizin-7a(5H)-yl)methoxy)quinazolin-7-yl)-7-fluorobenzo[b]thiophene-3-carbonitrile] | < 5 | < 5 |
| N#Cc1c(N)sc2c(F)ccc(-c3c(Cl)cc4c(N5CCC(OC(F)F)CC6(CN(C(=O)[C@@H]7CC7(F)F)C6)C5)nc(OC[C@@]56CCCN5C[C@H](F)C6)nc4c3F)c12 (stereo partly drawn) [compound 313, 2-amino-4-(6-chloro-4-(2-((S)-2,2-difluorocyclopropane-1-carbonyl)-9-(difluoromethoxy)-2,6-diazaspiro[3.6]decan-6-yl)-8-fluoro-2-(((2R,7aS)-2-fluorotetrahydro-1H-pyrrolizin-7a(5H)-yl)methoxy)quinazolin-7-yl)-7-fluorobenzo[b]thiophene-3-carbonitrile] | < 5 | < 5 |
| COC1CN(C(=O)N2CC3(CCCN(c4nc(O[C@@H](C)[C@@H]5CCCN5C)nc5c(F)c(-c6ccc(F)c7sc(N)c(C#N)c67)c(Cl)cc45)C3)C2)C1 [compound 205, 2-amino-4-(6-chloro-8-fluoro-4-(2-(3-methoxyazetidine-1-carbonyl)-2,6-diazaspiro[3.5]nonan-6-yl)-2-((S)-1-((S)-1-methylpyrrolidin-2-yl)ethoxy)quinazolin-7-yl)-7-fluorobenzo[b] thiophene-3-carbonitrile] | < 5 | < 5 |
| C[C@H]1CN(C(=O)N2CC3(CCCCN(c4nc(OC[C@@]56CCCN5C[C@H](F)C6)nc5c(F)c(-c6ccc(F)c7sc(N)c(C#N)c67)c(Cl)cc45)C3)C2)CCO1 [compound 285, 2-amino-4-(6-chloro-8-fluoro-2-(((2R,7aS)-2-fluorotetrahydro-1H-pyrrolizin-7a(5H)-yl)methoxy)-4-(2-((S)-2-methylmorpholine-4-carbonyl)-2,6-diazaspiro[3.6]decan-6-yl)quinazolin-7-yl)-7-fluorobenzo[b]thiophene-3-carbonitrile] | < 5 | < 5 |
| N#Cc1c(N)sc2c(F)ccc(-c3c(Cl)cc4c(N5CCCCC6(CN(C(=O)C7(C(F)(F)F)CC7)C6)C5)nc(OC[C@@]56CCCN5C[C@H](F)C6)nc4c3F)c12 [compound 244, 2-amino-4-(6-chloro-8-fluoro-2-(((2R,7aS)-2-fluorotetrahydro-1H-pyrrolizin-7a(5H)-yl)methoxy)-4-(2-(1-(trifluoromethyl)cyclopropane-1-carbonyl)-2,6-diazaspiro[3.6]decan-6-yl)quinazolin-7-yl)-7-fluorobenzo[b] thiophene-3-carbonitrile] | < 5 | < 5 |
| N#Cc1c(N)sc2c(F)ccc(-c3c(Cl)cc4c(N5CCCC6(CN(C(=O)C(F)Cl)C6)C5)nc(OC[C@@]56CCCN5C[C@H](F)C6)nc4c3F)c12 (stereo partly drawn) [compound 184, 2-amino-4-(6-chloro-4-(2-(2-chloro-2-fluoroacetyl)-2,6-diazaspiro[3.5]nonan-6-yl)-8-fluoro-2-(((2R,7aS)-2-fluorotetrahydro-1H-pyrrolizin-7a(5H)-yl)methoxy)quinazolin-7-yl)-7-fluorobenzo[b]thiophene-3-carbonitrile] | < 5 | < 5 |
| N#Cc1c(N)sc2c(F)ccc(-c3c(Cl)cc4c(N5CCCCC6(CN(C(=O)CC7(C#N)CC7)C6)C5)nc(OC[C@@]56CCCN5C[C@H](F)C6)nc4c3F)c12 [compound 280, 2-amino-4-(6-chloro-4-(2-(2-(1-cyanocyclopropyl)acetyl)-2,6-diazaspiro[3.6]decan-6-yl)-8-fluoro-2-(((2R,7aS)-2-fluorotetrahydro-1H-pyrrolizin-7a(5H)-yl)methoxy)quinazolin-7-yl)-7-fluorobenzo[b]thiophene-3-carbonitrile] | < 5 | < 5 |
